# According to article PMC7072677, “Arachidonoylcholine and Other Unsaturated Long-Chain Acylcholines Are Endogenous Modulators of the Acetylcholine Signaling System” (Biomolecules, 2020):
# Entries after “also recorded” stand apart in the source; their conditions may differ. Where two headings read alike, the source gives them in different places.
# Experiments:
# [1] = tested on: sea urchin Strongylocentrotus droebachiensis and S. purpuratus embryo; parameters: method as in PMID 11443948; details: quenched by QX-222; cited from earlier work
# [2] = molecular target: T1, equine serum BChE (Equus caballus, UniProt P81908); experiment: biochemical; details: for IC50: 10 min preincubation, ATCh 1 mM, N = 11, read-out: BChE IC50, inhibition of ATCh hydrolysis
# [3] = molecular target: T2, human erythrocyte AChE (Homo sapiens, UniProt P22303); experiment: biochemical; details: for IC50: 10 min preincubation, ATCh 1 mM, N = 11, read-out: AChE IC50, inhibition of ATCh hydrolysis
# [4] = tested on: A549 lung cancer cells; details: for decrease of A549 viability: 100 μM, 24 h incubation, MTT; for decrease of cell viability, dose-dependent, maximum: A549 lung cancer cells
# [5] = molecular target: T1, equine serum BChE; experiment: Hydrolysis of the substance by BChE (HPLC); type: in vitro ADME, horse; details: 1 mM substance, 0.02 U/mL enzyme, pH 7.5, 25 °C
# Description: (§1) AChE and BChE hydrolysis of AA-CHOL was determined in 100 mM phosphate buffer, pH 7.5 at 25 °C, the AA-CHOL concentration was 1 mM, the incubation time was 40 min. The enzyme concentrations were 0.02 U/mL in the sample. The reverse phase HPLC method was used to estimate the hydrolysis of AA-CHOL. As a control, acetylthiocholine iodide (ATCh) hydrolysis was determined in the same conditions.
# [6] = molecular target: T3, mouse muscle nAChR (Mus musculus, UniProt P02716+P04756+P20782); experiment: Two-electrode electrophysiology, ACh-evoked current in Xenopus oocytes; type: cell-based
# T3 construct: expressed in transfected cells; host or cells: Xenopus laevis oocytes, cDNA in pRBG4
# [7] = tested on: mouse forelimb grip strength; experiment: In vivo myorelaxant activity, forelimb grip strength; details: mice
# [8] = molecular target: T2, human erythrocyte AChE; experiment: Hydrolysis of the substance by AChE (HPLC); type: in vitro ADME; details: 1 mM substance, 0.02 U/mL enzyme, pH 7.5, 25 °C, 40 min
# Description: as §1
# [9] = molecular target: T4, α1β3γ2 GABAAR (Mus musculus, UniProt P62812+P63080); experiment: Electrophysiology, GABA-evoked currents in Xenopus oocytes; type: cell-based; details: up to a concentration of 10 μM
# T4 construct: expressed in transfected cells; host or cells: Xenopus oocytes, cDNA in PCI vector
# [10] = molecular target: T5, α7 nAChR (Homo sapiens, UniProt P36544); experiment: Ca2+ mobilization (agonist test) in SH-SY5Y cells; type: cell-based
# T5 construct: SH-SY5Y cells endogenously expressing α7 nAChR; host or cells: SH-SY5Y
# Description: Cells were cultured for two days at 37 °C on black 96-well plates. Immediately before the experiments, cells were incubated with […] Fluo-4AM ester reagent and 1.25 mM probenecid (organic anion transporter inhibitor) for 1 h at room temperature. After the incubation, the cells were washed out with the extracellular solution (140 mM NaCl, 2 mM CaCl2, 2.8 mM KCl, 4 mM MgCl2, 20 mM HEPES, 10 mM glucose; pH 7.4). The last washout was supplied with 10 uM α7 nAChR positive allosteric modulator PNU 120596 and tested compound. The excitation of Fluo-4 achieved at 485 nm and fluorescence registered at 535 nm using Hidex Sense Beta Plus (Turku, Finland) multi-well plate fluorimeter. The calcium rise amplitude was measured from the base level of each well.
# [11] = tested on: A549 cells; experiment: Caspase activation and apoptosis staining in A549 cells; type: cell-based; details: A549, 150 μM
# [12] = tested on: A549 lung cancer cells; details: 1 to 10 µM, predominantly after 48 and 72 h; cited from earlier work
# T5 sequence (P36544 23-502): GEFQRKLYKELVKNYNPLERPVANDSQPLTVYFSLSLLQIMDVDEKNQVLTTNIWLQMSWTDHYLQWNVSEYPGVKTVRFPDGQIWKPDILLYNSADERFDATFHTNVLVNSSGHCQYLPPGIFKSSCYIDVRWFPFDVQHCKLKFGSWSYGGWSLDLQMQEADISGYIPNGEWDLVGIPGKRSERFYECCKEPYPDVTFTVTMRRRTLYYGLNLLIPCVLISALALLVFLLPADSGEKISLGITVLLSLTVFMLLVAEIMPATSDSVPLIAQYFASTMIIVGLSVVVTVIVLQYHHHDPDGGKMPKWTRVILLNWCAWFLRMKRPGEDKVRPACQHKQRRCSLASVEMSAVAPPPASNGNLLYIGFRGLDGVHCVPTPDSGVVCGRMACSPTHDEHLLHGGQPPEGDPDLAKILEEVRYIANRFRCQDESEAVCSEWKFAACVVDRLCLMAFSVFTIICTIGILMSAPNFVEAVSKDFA
# T2 sequence (P22303 32-617 isoform P22303-2 limits assumed): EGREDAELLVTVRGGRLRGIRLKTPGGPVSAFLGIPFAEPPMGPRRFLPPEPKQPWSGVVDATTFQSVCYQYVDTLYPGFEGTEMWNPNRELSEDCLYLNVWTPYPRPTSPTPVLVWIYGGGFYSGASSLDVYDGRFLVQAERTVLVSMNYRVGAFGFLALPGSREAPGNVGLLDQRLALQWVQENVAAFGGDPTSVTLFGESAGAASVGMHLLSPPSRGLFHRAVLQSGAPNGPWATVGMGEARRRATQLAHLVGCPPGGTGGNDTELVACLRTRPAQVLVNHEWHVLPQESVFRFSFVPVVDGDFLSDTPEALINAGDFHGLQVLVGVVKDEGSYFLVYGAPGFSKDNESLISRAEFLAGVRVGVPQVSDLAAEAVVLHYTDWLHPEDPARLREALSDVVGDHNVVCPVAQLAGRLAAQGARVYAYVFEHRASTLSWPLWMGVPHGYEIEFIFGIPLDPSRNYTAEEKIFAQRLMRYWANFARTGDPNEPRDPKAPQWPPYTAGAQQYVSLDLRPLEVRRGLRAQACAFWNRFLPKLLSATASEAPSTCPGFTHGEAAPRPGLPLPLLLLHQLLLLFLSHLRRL
# T1 sequence (P81908 whole entry): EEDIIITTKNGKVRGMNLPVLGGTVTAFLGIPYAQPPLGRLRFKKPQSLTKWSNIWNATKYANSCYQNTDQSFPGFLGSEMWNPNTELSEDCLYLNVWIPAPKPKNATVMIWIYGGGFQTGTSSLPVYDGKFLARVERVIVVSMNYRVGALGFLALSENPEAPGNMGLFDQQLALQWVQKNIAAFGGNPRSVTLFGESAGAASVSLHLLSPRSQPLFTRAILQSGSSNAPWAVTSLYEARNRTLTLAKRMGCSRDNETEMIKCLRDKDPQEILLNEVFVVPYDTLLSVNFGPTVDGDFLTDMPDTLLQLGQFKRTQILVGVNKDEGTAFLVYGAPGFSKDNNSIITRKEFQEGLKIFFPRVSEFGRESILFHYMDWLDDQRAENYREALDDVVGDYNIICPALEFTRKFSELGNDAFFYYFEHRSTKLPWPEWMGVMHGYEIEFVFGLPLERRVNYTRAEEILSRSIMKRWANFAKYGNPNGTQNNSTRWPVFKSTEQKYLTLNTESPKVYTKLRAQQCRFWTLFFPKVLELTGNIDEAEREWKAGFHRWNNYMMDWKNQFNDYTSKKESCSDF
# T4 sequence (P62812 28-455): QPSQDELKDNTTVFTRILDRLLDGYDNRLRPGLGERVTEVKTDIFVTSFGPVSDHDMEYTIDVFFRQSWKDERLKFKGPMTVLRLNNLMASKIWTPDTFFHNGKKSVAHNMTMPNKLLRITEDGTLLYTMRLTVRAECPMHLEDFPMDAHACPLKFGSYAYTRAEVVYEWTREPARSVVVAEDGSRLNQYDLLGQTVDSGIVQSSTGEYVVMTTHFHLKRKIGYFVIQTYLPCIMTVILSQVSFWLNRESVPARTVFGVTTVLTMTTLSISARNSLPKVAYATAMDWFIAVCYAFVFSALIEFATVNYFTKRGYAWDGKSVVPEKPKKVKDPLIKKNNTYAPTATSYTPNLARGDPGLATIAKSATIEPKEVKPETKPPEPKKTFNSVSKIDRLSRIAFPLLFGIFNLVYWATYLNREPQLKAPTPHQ
# T4 sequence (P63080 26-473): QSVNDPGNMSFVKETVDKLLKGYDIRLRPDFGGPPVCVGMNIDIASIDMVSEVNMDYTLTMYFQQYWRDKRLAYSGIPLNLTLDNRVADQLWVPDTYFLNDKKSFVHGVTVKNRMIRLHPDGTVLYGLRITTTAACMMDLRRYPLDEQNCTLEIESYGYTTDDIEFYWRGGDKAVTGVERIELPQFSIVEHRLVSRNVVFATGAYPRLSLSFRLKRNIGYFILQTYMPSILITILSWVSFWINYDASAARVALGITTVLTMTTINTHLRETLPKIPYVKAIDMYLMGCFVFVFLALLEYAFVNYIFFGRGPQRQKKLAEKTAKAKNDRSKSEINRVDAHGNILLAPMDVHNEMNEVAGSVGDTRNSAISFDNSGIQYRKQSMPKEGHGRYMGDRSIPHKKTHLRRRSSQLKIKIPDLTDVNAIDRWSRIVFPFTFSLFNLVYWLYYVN
# T4 sequence (P22723 39-474 partner): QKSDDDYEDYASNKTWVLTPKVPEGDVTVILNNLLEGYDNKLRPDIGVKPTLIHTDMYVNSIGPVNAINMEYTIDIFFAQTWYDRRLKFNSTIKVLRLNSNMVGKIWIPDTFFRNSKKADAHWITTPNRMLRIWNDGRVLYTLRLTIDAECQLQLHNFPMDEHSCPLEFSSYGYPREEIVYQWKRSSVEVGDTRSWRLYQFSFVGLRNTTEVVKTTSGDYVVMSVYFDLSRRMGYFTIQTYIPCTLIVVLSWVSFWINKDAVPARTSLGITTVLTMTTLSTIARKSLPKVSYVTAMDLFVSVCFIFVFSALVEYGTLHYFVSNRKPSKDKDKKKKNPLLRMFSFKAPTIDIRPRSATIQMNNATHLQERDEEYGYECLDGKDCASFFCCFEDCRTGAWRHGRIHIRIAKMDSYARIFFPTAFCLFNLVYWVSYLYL
# T3 sequence (P04756 21-457): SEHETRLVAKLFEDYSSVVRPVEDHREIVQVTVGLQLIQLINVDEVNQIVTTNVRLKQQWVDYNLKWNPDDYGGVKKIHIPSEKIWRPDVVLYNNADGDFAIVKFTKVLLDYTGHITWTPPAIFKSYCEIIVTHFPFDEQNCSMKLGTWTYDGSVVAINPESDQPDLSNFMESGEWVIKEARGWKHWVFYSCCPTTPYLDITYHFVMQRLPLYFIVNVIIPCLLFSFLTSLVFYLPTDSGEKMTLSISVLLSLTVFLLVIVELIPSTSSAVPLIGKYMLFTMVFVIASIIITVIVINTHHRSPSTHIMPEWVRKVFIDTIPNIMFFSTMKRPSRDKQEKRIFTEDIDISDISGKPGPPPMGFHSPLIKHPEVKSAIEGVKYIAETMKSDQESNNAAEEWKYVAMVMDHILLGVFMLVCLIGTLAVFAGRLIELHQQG
# T3 sequence (P09690 24-501 partner): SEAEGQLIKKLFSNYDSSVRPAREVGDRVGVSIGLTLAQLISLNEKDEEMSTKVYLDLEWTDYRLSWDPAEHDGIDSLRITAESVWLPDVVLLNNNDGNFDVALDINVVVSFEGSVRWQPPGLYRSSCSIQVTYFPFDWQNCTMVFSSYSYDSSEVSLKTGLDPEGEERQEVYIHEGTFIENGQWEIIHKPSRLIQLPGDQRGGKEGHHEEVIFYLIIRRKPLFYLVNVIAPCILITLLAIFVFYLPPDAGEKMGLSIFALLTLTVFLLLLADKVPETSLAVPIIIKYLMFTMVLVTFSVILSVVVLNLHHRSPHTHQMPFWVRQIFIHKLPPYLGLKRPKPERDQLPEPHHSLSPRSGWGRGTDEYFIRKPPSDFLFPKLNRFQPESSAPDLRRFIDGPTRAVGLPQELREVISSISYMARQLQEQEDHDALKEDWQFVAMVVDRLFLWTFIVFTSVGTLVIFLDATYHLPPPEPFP
# T3 sequence (P02716 25-520): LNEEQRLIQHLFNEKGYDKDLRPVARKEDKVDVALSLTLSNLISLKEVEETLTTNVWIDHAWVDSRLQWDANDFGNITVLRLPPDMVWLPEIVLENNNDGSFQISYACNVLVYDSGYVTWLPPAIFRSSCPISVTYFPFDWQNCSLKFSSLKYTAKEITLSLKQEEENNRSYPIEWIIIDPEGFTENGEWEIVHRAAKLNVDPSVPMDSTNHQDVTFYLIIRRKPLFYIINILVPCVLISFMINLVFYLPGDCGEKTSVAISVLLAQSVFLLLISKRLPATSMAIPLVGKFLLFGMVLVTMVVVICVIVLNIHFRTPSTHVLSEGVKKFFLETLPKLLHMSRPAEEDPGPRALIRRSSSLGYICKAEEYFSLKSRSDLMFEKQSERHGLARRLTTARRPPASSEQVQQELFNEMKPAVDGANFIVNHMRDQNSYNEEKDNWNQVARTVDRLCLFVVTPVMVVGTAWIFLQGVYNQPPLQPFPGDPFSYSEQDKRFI
# T3 sequence (P20782 21-493): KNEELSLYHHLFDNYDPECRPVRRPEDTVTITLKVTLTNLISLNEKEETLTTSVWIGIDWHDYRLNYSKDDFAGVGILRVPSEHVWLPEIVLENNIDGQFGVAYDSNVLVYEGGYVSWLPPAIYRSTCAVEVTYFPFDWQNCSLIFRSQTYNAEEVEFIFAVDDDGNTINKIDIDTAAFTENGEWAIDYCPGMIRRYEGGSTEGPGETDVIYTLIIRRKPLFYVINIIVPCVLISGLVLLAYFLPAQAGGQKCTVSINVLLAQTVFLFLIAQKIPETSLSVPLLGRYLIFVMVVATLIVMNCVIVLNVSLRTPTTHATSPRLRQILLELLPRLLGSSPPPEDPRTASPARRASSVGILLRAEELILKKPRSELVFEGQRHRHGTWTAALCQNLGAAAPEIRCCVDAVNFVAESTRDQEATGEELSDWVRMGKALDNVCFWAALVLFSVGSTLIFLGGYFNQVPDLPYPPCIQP
smiles,measurement,setting,value
"CCCCC/C=C\C/C=C\C/C=C\C/C=C\CCCC(=O)OCC[N+](C)(C)C [AA-CHOL, Arachidonoylcholine]",effect on sea urchin larva,[1],dose-dependently induced the larva immobilization and cell lysis
same,IC50,[2],170 ± 16 µM
same,type of BChE inhibition,[2]; steady-state kinetics,mixed type mechanism; also recorded: mixed-type inhibition
same,"αKi (noncompetitive component), BChE","[2]; steady-state, Lineweaver-Burk",214 ± 17 µM
same,Ki,"[2]; steady-state, Lineweaver-Burk, read-out: Ki (competitive component), BChE",70.5 ± 6.3 µM
same,IC50,[3],90 ± 1 µM
same,type of AChE inhibition,[3]; steady-state kinetics,mixed type mechanism; also recorded: mixed-type inhibition
same,"αKi (noncompetitive component), AChE","[3]; steady-state, Lineweaver-Burk",51.4 ± 4.1 µM
same,Ki,"[3]; steady-state, Lineweaver-Burk, read-out: Ki (competitive component), AChE",16.7 ± 1.5 µM
same,decrease of A549 viability,[4],10%
same,"decrease of cell viability, dose-dependent, maximum",[4],up to 45%
same,hydrolysis by BChE,[5]; during 40 min,up to 30%
same,IC50,[6],3.16 ± 0.26 µM
same,"muscle relaxant effect, grip strength vs control","[7]; injection into front paws (intramuscular) 0.5, 1 and 4 mg/kg, 15 min to 4 h",no differences from the control group; also recorded: no difference from the control; also recorded: does not produce a significant muscle relaxation
same,"muscle relaxant effect, grip strength vs control","[7]; subcutaneous injection 10 and 30 mg/kg, up to 240 min",No differences with the respective controls; also recorded: no substance activity
same,hydrolysis by AChE,[8],not hydrolyzed
same,functional inhibition of α1β3γ2 GABAAR,[9],no functional inhibition
same,induction of rise in intracellular Ca2+ (agonistic properties),[10],showed no agonistic properties
"CC(=O)SCC[N+](C)(C)C.[I-] [ATCh, acetylthiocholine iodide, reference compound]",hydrolysis by BChE,[5]; 40 min,fully hydrolyzed
same,hydrolysis by AChE,[8],fully hydrolyzed
"CC/C=C\C/C=C\C/C=C\C/C=C\C/C=C\C/C=C\CCC(=O)OCC[N+](C)(C)C [DHA-CHOL, docosahexaenoylcholine]",effect on sea urchin larva,[1],dose-dependently induced the larva immobilization and cell lysis
same,IC50,[2],> 300 µM
same,AChE inhibitory activity,[3],Neither Ln-CHOL nor DHA-CHOL had noticeable inhibitory activity
same,IC50,[3],> 300 µM
same,decrease of A549 viability,[4],inactive
same,induction of rise in intracellular Ca2+ (agonistic properties),[10],showed no agonistic properties
CCCCC/C=C\C/C=C\CCCCCCCC(=O)OCC[N+](C)(C)C [Ln-CHOL],IC50,[2],> 300 µM
same,AChE inhibitory activity,[3],Neither Ln-CHOL nor DHA-CHOL had noticeable inhibitory activity
same,IC50,[3],> 300 µM
same,decrease of A549 viability,[4],10%
same,"decrease of cell viability, dose-dependent, maximum",[4],up to 45%
same,induction of rise in intracellular Ca2+ (agonistic properties),[10],showed no agonistic properties
"CN1CCC[C@H]1c1cccnc1 [Nicotine, reference compound]",effect on A549 proliferation,[4]; 15 μM,slightly decreased
same,effect on the cytotoxicity of Ol-CHOL,"[4]; A549, 90 or 100 μM of Ol-CHOL",did not affect the cytotoxicity
CCCCCCCC/C=C\CCCCCCCC(=O)OCC[N+](C)(C)C [Ol-CHOL],decrease of A549 viability,[4],45%
same,"decrease of cell viability, dose-dependent, maximum",[4],up to 45%
same,phosphatidylserine exposure on the membrane,[11],phosphatidylserine exposure on the membrane
same,caspase 3 activation,[11]; 5 h,activation
same,caspase 8 activation,[11]; 5 h,not caspase 8 activation
same,caspase 9 activation,[11]; 5 h,activation
"CCN1C[C@]2(COC(=O)c3ccccc3N3C(=O)C[C@H](C)C3=O)CC[C@H](OC)[C@@]34[C@@H]5C[C@H]6[C@H](OC)[C@@H]5[C@](O)(C[C@@H]6OC)[C@@](O)([C@@H](OC)[C@H]23)[C@@H]14 [methyllycaconitine, reference compound]",effect on A549 proliferation,[4]; up to the concentration of 10 μM,did not affect
same,effect on proliferation of the A549 cells,[12],inhibits the proliferation
